Patent US20130053430A1, “MODULATION OF CETP EXPRESSION” (Isis Pharmaceuticals, Inc., priority 2010, published 2013)
e = 2'-O-(2-methoxyethyl) (MOE); d = 2'-deoxy (DNA)

How the values were obtained:
CETP mRNA = assay: Dose response, liver CETP mRNA in huCETP transgenic mice on Western diet (Example 9); type: in vivo, human; conditions: s.c. 6 weeks
Procedure: Male transgenic mice were maintained on a 12-hour light/dark cycle and were fed ad libitum the Western diet (TD88137; 42% cal from fat, 0.2% cholesterol; Harlan Laboratories, Indianapolis, Ind.). Animals were acclimated for at least 7 days in the research facility before initiation of the experiment and were maintained on this diet throughout the study period. Antisense oligonucleotides (ASOs) were prepared in buffered saline (PBS) and sterilized by filtering through a 0.2 micron filter. Oligonucleotides were dissolved in 0.9% PBS for injection.
(§1) Another group received subcutaneous injections of control oligonucleotide ISIS 141923 at a dose of 50 mg/kg/week for 6 weeks. One group of mice received subcutaneous injections of PBS for 6 weeks. The PBS-injected group served as the control group to which treatment groups were compared.
Twenty four hours after the final dose, the animals were sacrificed and liver tissue was isolated. Liver RNA was isolated for real-time PCR analysis of CETP. The primer probe sets hCETP and hCETP2_LTS00182 were individually used to measure CETP levels. As presented in Table 43, treatment with ISIS 349517 reduced CETP mRNA expression in a dose-dependent manner. Both primer probe sets produced similar results. The RNA expression levels were normalized to murine Cyclophilin. The results are expressed as percent inhibition of CETP mRNA, relative to the PBS control.

CETP protein = assay: Plasma CETP protein by ELISA, dose response (Example 9); type: in vivo, human; conditions: huCETP transgenic mice, Western diet, s.c. 6 weeks
Procedure: as §1
Plasma CETP protein levels were measured by ELISA (Alpco). The results are expressed as percent inhibition of CETP protein, relative to the PBS control.

human CETP mRNA = assay: Liver CETP mRNA in huCETP transgenic mice, normal chow (Example 5); type: in vivo; conditions: 50 mg/kg i.p. twice per week for 6 weeks, relative to PBS control
Procedure: Male huCETP transgenic mice were maintained on a 12-hour light/dark cycle and fed ad libitum normal Purina mouse chow. Animals were acclimated for at least 7 days in the research facility before initiation of the experiment. Antisense oligonucleotides (ASOs) were prepared in buffered saline (PBS) and sterilized by filtering through a 0.2 micron filter. Oligonucleotides were dissolved in 0.9% PBS for injection.
(§2) The mice were divided into five treatment groups. The first four groups received intraperitoneal injections of ISIS 349511, ISIS 349512, ISIS 349515, or ISIS 349517 at a dose of 50 mg/kg twice per week for 6 weeks. The fifth group received intraperitoneal injections of saline twice weekly for 6 weeks.
Twenty four hours after the final dose, the animals were sacrificed and liver tissue was isolated. Liver RNA was isolated for real-time PCR analysis of CETP. Two primer probe sets, hCETP (forward sequence […], designated herein as SEQ ID NO: 118; reverse sequence […], designated herein as SEQ ID NO: 119; probe sequence TGCGGACCGATGCCCCTGAX, designated herein as SEQ ID NO: 120) and hCETP2_LTS00182 (forward sequence […], designated herein as SEQ ID NO: 38; reverse sequence GGCTCACGCCTTTGCTGTT, designated herein as SEQ ID NO: 39: probe sequence CGGCTCGAGGTAGTGTTTACAGCCCTCX, designated herein as SEQ ID NO: 40), were used. These primer probe sets target the CETP mRNA transcript at different regions. As presented in Table 7, treatment with antisense oligonucleotides reduced CETP mRNA expression. The primer probe sets were used individually and collectively to measure CETP mRNA expression and gave similar results in all three cases. The RNA expression levels were normalized to murine Cyclophilin, a house-keeping gene, which is constitutively expressed. Cyclophilin levels were measured using the primer probe set described in Table 2. The results are expressed as percent inhibition of CETP mRNA, relative to the PBS control.

[1] = Plasma glucose in huCETP transgenic mice (Example 5); type: in vivo; conditions: 50 mg/kg i.p. twice per week
Procedure: as §2
Plasma glucose values were determined using a Beckman Glucose Analyzer II (Beckman Coulter) by a glucose oxidase method (Lott, J. A. et al., Clin. Chem. 21: 1754-1760, 1975).

Row | Substance | Percent inhibition of liver CETP mRNA expression, PPset hCETP (CETP mRNA; Dose 50 mg/kg/wk) | Percent inhibition of liver CETP mRNA expression, PPset hCETP2_LTS00182 (CETP mRNA; Dose 50 mg/kg/wk) | Percent inhibition of plasma CETP protein levels (CETP protein; Dose 50 mg/kg/wk) | Percent inhibition of liver CETP mRNA expression, Combined primer probe sets (human CETP mRNA) | Percent inhibition of liver CETP mRNA expression, Primer probe set hCETP (human CETP mRNA) | Percent inhibition of liver CETP mRNA expression, Primer probe set hCETP2_LTS00182 (human CETP mRNA) | Glucose levels ([1]; week 3) | Glucose levels ([1]; week 6) | Percent inhibition of liver CETP mRNA expression, PPset hCETP (CETP mRNA; Dose 1.5 mg/kg/wk) | Percent inhibition of liver CETP mRNA expression, PPset hCETP2_LTS00182 (CETP mRNA; Dose 1.5 mg/kg/wk) | Percent inhibition of liver CETP mRNA expression, PPset hCETP (CETP mRNA; Dose 5 mg/kg/wk) | Percent inhibition of liver CETP mRNA expression, PPset hCETP2_LTS00182 (CETP mRNA; Dose 5 mg/kg/wk) | Percent inhibition of liver CETP mRNA expression, PPset hCETP (CETP mRNA; Dose 15 mg/kg/wk) | Percent inhibition of liver CETP mRNA expression, PPset hCETP2_LTS00182 (CETP mRNA; Dose 15 mg/kg/wk) | Percent inhibition of plasma CETP protein levels (CETP protein; Dose 1.5 mg/kg/wk) | Percent inhibition of plasma CETP protein levels (CETP protein; Dose 5 mg/kg/wk) | Percent inhibition of plasma CETP protein levels (CETP protein; Dose 15 mg/kg/wk)
1 | ISIS 141923: CCTTCCCTGAAGGTTCCTCC, 5-10-5 MOE gapmer, a control oligonucleotide which has no known murine target (sugars from the 5' end e5 d10 e5, backbone and methylation of C not given here) [reference compound] | 0% | 0% | 7% | – | – | – | – | – | – | – | – | – | – | – | – | – | –
2 | ISIS 349511: 5-10-5 MOE gapmer CCCGACCTCCTTGGAGACTT (sugars from the 5' end e5 d10 e5, backbone and methylation of C not given here) | – | – | – | 88% | 90% | 86% | 286 mg/dL | 245 mg/dL | – | – | – | – | – | – | – | – | –
3 | ISIS 349517: 5-10-5 MOE gapmer CAGCACTTTAATGCCAGTGG (sugars from the 5' end e5 d10 e5, backbone and methylation of C not given here) | 92% | 96% | 80% | 97% | 99% | 95% | 333 mg/dL | 254 mg/dL | 59% | 59% | 87% | 87% | 91% | 95% | 58% | 74% | 81%
